{"source": "the supplement of paper PMC10307832", "test_in_all_cases": "relative viability (nuclei count vs DMSO), 5 days (fraction); higher = more cells survive", "key": {"[1]": {"compound": "C1COCCN1C2=NC(=NC3=C2OC4=C3C=CC=N4)C5=CC(=CC=C5)NC(=O)C6=CN=C(C=C6)N + O=C(c1cc(Cc2n[nH]c(=O)c3ccccc23)ccc1F)N1CCN(C(=O)C2CC2)CC1 [Olaparib] (partner 8 µM)", "method_in_brief": "(§1)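 Lung cancer cell lines, seeded in 1536-well plates, were treated the following day by pin tool with a single drug or with five library-drug doses (not always all listed) in √10 steps on top of a fixed anchor-drug dose. Cells were fixed and nuclei stained in one step after 5 days, and nuclei were counted. Relative viability is the nuclei count for treated wells divided by that for vehicle wells, reported as medians of duplicate plates.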"}, "SGI-1776 + Dasatinib": {"compound": "CN1CCC(CNc2ccc3ncc(-c4cccc(OC(F)(F)F)c4)n3n2)CC1 [SGI-1776] + Cc1nc(Nc2ncc(C(=O)Nc3c(C)cccc3Cl)s2)cc(N2CCN(CCO)CC2)n1 [Dasatinib] (partner 0.075 µM)", "method_in_brief": "as §1"}, "SGI-1776 + AZD7762": {"compound": "CN1CCC(CNc2ccc3ncc(-c4cccc(OC(F)(F)F)c4)n3n2)CC1 [SGI-1776] + NC(=O)Nc1cc(-c2cccc(F)c2)sc1C(=O)N[C@H]1CCCNC1 [AZD7762] (partner 0.2 µM)", "method_in_brief": "as §1"}, "SGI-1776 + Pictilisib": {"compound": "CN1CCC(CNc2ccc3ncc(-c4cccc(OC(F)(F)F)c4)n3n2)CC1 [SGI-1776] + CS(=O)(=O)N1CCN(Cc2cc3nc(-c4cccc5[nH]ncc45)nc(N4CCOCC4)c3s2)CC1 [Pictilisib] (partner 1 µM)", "method_in_brief": "as §1"}}, "data": [{"cell line": "RERF-LC-KJ", "values": [{"measurement": "relative viability", "setting": "[1]; first compound 0.02 µM", "value": 0.953}, {"measurement": "relative viability", "setting": "[1]; first compound 0.06325 µM", "value": 0.982}, {"measurement": "relative viability", "setting": "[1]; first compound 0.2 µM", "value": 0.866}, {"measurement": "relative viability", "setting": "[1]; first compound 0.6325 µM", "value": 0.93}, {"measurement": "relative viability", "setting": "[1]; first compound 2 µM", "value": 0.554}, {"measurement": "relative viability", "setting": "SGI-1776 + Dasatinib; first compound 0.08 µM", "value": 0.803}, {"measurement": "relative viability", "setting": "SGI-1776 + Dasatinib; first compound 0.8 µM", "value": 0.688}, {"measurement": "relative viability", "setting": "SGI-1776 + Dasatinib; first compound 2.53 µM", "value": 0.7}, {"measurement": "relative viability", "setting": "SGI-1776 + Dasatinib; first compound 8 µM", "value": 0.447}, {"measurement": "relative viability", "setting": "SGI-1776 + AZD7762; first compound 0.08 µM", "value": 0.912}, {"measurement": "relative viability", "setting": "SGI-1776 + AZD7762; first compound 0.8 µM", "value": 1.08}, {"measurement": "relative viability", "setting": "SGI-1776 + AZD7762; first compound 2.53 µM", "value": 0.831}, {"measurement": "relative viability", "setting": "SGI-1776 + AZD7762; first compound 8 µM", "value": 0.828}, {"measurement": "relative viability", "setting": "SGI-1776 + Pictilisib; first compound 0.08 µM", "value": 0.556}, {"measurement": "relative viability", "setting": "SGI-1776 + Pictilisib; first compound 0.8 µM", "value": 0.533}, {"measurement": "relative viability", "setting": "SGI-1776 + Pictilisib; first compound 2.53 µM", "value": 0.568}, {"measurement": "relative viability", "setting": "SGI-1776 + Pictilisib; first compound 8 µM", "value": 0.353}]}]}
